Assays:
[1] = tested on: FAHFA hydrolysis activity in pancreas membrane lysate; test: FAHFA hydrolysis activity assay, pancreas membrane lysate; details: 1 mg/ml protein, 100 uM 9-PAHSA, 30 min, room temperature
[2] = tested on: LPS-activated dendritic cells; test: LPS-induced maturation/activation of bone marrow-derived dendritic cells; type: cell-based, mouse
Description: Mouse bone marrow cells were flushed from the femurs and tibiae. The red blood cells were eliminated and the cells plated at a density of 1.0×10^6 cells/mL in RBMI complete medium containing 10% FCS plus 20 ng/ml GM-CSF. The medium was replaced on day 4, and the cells were harvested on day 6 to obtain immature DCs. To obtain mature DCs, LPS was added to the cultures at a final concentration of 100 ng/mL on day 6, and the cells were cultured for an additional 24 h, as previously described by Macia, L., et al. Impairment of dendritic cell functionality and steady-state number in obese mice. J Immunol 177, 5997-6006 (2006), which is incorporated by reference in its entirety. […] The activation status of the BMDCs was evaluated by measuring the expression of MHCII and co-stimulatory molecules using Flow Cytometry and by the production of pro-inflammatory cytokines (IL-6, TNF, IL-12 and IL-1β) which was assessed by ELISA. […]
The immature dendritic cells obtained in the day 6 were maturated with LPS in the presence of different concentrations of 9-PAHSA varying between 100 ng/mL to 20 ug/mL. The cells were maturated for 24 h and the maturation status analyzed by cytokine production and co-stimulatory molecules expression.
The cells were analyzed by Multicolor Flow cytometry. […] The cells were analyzed with an LSR II flow cytometer (BD) and FlowJo software. […]

[3] = molecular target: T1, purified CEL (Homo sapiens, UniProt P19835); test: Hydrolysis of 9-PAHSA by purified CEL; type: biochemical; details: micellar concentrations of NaTC
T1 construct: purchased R&D Systems
T1 sequence (P19835 21-753): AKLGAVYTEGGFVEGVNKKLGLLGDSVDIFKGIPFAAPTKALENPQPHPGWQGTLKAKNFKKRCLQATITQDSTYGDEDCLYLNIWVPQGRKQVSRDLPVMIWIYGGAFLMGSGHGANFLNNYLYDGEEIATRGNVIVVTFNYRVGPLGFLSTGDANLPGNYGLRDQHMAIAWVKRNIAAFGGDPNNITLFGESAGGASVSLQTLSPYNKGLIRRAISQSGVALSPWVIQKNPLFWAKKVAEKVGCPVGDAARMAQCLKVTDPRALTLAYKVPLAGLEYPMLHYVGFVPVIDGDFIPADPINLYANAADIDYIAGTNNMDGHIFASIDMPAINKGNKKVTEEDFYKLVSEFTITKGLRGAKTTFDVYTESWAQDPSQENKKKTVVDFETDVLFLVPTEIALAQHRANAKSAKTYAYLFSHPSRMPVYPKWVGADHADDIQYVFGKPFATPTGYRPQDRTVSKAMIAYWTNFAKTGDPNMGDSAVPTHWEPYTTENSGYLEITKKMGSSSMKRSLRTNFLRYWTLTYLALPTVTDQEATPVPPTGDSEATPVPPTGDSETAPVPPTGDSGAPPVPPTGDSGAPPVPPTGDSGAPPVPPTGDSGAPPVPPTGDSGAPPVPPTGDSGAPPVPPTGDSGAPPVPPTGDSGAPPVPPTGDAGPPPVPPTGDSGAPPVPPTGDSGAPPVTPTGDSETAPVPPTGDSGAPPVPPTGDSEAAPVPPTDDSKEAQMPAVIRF
From the text: To confirm the identification of CEL as a FAHFA hydrolase, a small amount of purified enzyme (available commercially from R&D Systems) was used.

## CCCCCCCCCCCCCCCC(=O)OC(CCCCCCCCC)CCCCCCCC(=O)O (stereo not shown) [9-PAHSA, palmitoyl-9-hydroxystearic acid]
[1]
  FAHFA hydrolysis activity, pancreas membrane versus liver membrane: ~10 fold
[2]; 100 ng/mL LPS, 24 h, flow cytometry
  LPS-induced dendritic cell activation (expression of MHCII, CD40, CD80, CD86): prevents LPS-induced dendritic cell activation in a dose dependent manner
[2]; LPS-activated dendritic cells, ELISA
  IL-12 production: blocks IL-12 production
[3]
  hydrolysis, measured by 9-HSA production: substantial hydrolysis

— patent publication US11174216B2, “Lipids that increase insulin sensitivity and methods of using the same” (Beth Israel Deaconess Medical Center, Inc., priority 2012, dated 2021)
